Assay results reported in patent US20240247224A1, “SYSTEM AND METHOD FOR RAPID SUSCEPTIBILITY TESTING” (priority 2023, published 2024).
In brackets after ≈: the same amount, converted by molar mass. Like-named read-outs stand apart in the source and are kept apart here. Blank lines part the entries; values can stand above or below the compound they belong to.

How the values were obtained:
[1] = tested on: NG AR 0165 (Neisseria gonorrhoeae antibiotic resistant isolate 0165); test: Optical scatter phenotypic AST on the instrument, NG AR 0165; type: cell-based; details: normalized reading, 650 nm, FIG. 22, read-out: Our MIC based on the curves
Text: (§1) In one embodiment, the application of the system disclosed herein is to conduct phenotypic antimicrobial susceptibility testing on Neisseria gonorrhoeae (NG). NG is a fastidious organism and a difficult organism to culture in liquid nutrient broth. The instant invention uses a proprietary media designed for the broth culture of NG. Using specific antibiotics, each at multiple concentrations in each well within the cassette and allowing bacteria to culture in the presence of antibiotic, one can determine the phenotypic AST results. Data generated and illustrated in the figures was generated from samples ranging from single wells or a plurality of wells within one or more cassettes.
(§2) In one embodiment, the application of the system is to conduct phenotypic antimicrobial susceptibility testing on NG. […]
(§3) The workflow involves use of a sample preparation kit (if and as needed) to process the sample to be tested (based on the sample type). […] The cassette is then loaded into one of the open bays/readers within the instrument. The reader also has an RFID scanner to record the cassette location i.e., the bay/reader it is inserted into within the instrument. The cassette is then autonomously incubated within the instrument, during which all wells within the cassette are read independently by the reader at regular specified time intervals, until the test is complete. […]

[2] = tested on: NG 49226 (QC strain); test: Optical scatter phenotypic AST on the instrument, NG 49226; type: cell-based, Neisseria gonorrhoeae; details: read-out: Our MIC based on the curves
Text: as §1, §2, §3

[3] = tested on: E coli 25922 (QC strain); test: Optical scatter phenotypic AST on the instrument, E coli 25922; type: cell-based; details: normalized reading, 650 nm, FIG. 25, read-out: Our MIC based on the curves
Text: (§4) In one embodiment, the application of the system is to conduct phenotypic antimicrobial susceptibility testing on gram positive and gram negative organisms from isolates or directly from a positive blood sample. In this embodiment, our method deploys a series of tightly controlled environmental factors, such as temperature, humidity, CO2, along with the use of Mueller-Hinton-II defined media allowing for the testing of these organisms as specified by CLSI. Using specific antibiotics, at various ranges, antibiotic classes, concentrations across the wells of the cassette and allowing bacteria to culture in the presence of antibiotic, one can determine the phenotypic AST results.
(§5) The workflow involves use of a sample preparation kit (if and as needed) to process the sample to be tested (based on the sample type). […] The cassette is then loaded into one of the open bays/readers within the instrument. The reader also has an RFID scanner to record the cassette location i.e., the bay/reader it is inserted into within the instrument. The cassette is then autonomously incubated within the instrument, during which all wells within the cassette are read independently by the reader at regular specified time intervals, until the test is complete. […] Based on the statistical analysis, if the signal change was determined as significant for a given well that well is considered to have detected the analyte. […]

[4] = tested on: NG AR 0165 (Neisseria gonorrhoeae antibiotic resistant isolate 0165); details: FIG. 22; cited from earlier work
[5] = tested on: NG 49226 (QC strain); details: FIG. 24; cited from earlier work
[6] = tested on: E coli 25922 (QC strain); details: FIG. 25; cited from earlier work
[7] = tested on: NG AR 0179 (Neisseria gonorrhoeae antibiotic resistant isolate 0179); test: Optical scatter phenotypic AST on the instrument, NG AR 0179; type: cell-based; details: normalized reading, 650 nm, FIG. 23, read-out: Our MIC based on the curves
Text: as §1, §2, §3

[8] = tested on: S aureus 29213 (QC strain); test: Optical scatter phenotypic AST on the instrument, S aureus 29213; type: cell-based; details: S aureus 29213 (QC strain) in cation adjusted Mueller Hinton Broth (CAMHB); FIG. 28; read-out: Our MIC based on the curves
Text: as §4, §5

[9] = tested on: K pneumoniae 700603; test: Optical scatter phenotypic AST on the instrument, K pneumoniae 700603; type: cell-based; details: K pneumoniae 700603 in CAMHB with blood (to mimic a positive blood culture vial); FIG. 30; read-out: Our MIC based on the curves
Text: as §4, §5

[10] = tested on: E faecalis 29212 (QC strain); test: Optical scatter phenotypic AST on the instrument, E faecalis 29212; type: cell-based; details: E faecalis 29212 (QC strain) in CAMHB with blood (to mimic a positive blood culture vial); FIG. 29; read-out: Our MIC based on the curves
Text: as §4, §5

[11] = tested on: E faecalis 29212 (QC strain); details: FIG. 29; cited from earlier work
[12] = tested on: Staphylococcus aureus in diluted positive blood culture sample; test: Direct-from-positive blood culture AST on the instrument, Staphylococcus aureus; type: cell-based; details: diluted positive blood culture sample from the clinical lab, FIG. 34, read-out: Our MIC based on the curves
Text: (§6) In one embodiment, the application of the system is to conduct phenotypic antimicrobial susceptibility testing on gram positive and gram-negative organisms from a positive blood sample without plating for an isolate. In this embodiment, the positive blood sample is adjusted to the desired microbial concentration. In this embodiment our method deploys a series of tightly controlled environmental factors, such as temperature, humidity, CO2, along with the use of Mueller-Hinton-II defined media allowing for the testing of these organisms as specified by CLSI. […]
as §3, with “complete. The test completion is determined either by the prespecified time period for the cassette to be run, or until the software algorithm running the data analysis in real-time determines the necessary change to the call to complete the test.” for “complete.”

[13] = tested on: Staphylococcus aureus in diluted positive blood culture sample; test: In-house broth microdilution test (expected MIC), Staphylococcus aureus; type: cell-based; details: clinical positive blood culture sample, FIG. 34, read-out: expected MIC value (based on in-house broth microdilution test)
Experimental: (§7) BMD refers to liquid suspension of an isolated culture in the presence of varying types and concentrations of antibiotics. The liquid cultures are incubated for a period of time at which the turbidity or cloudiness of the suspension is measured either visually, optically or using other detection means. The turbidity is caused by bacteria multiplying and/or a “growing” culture (resistant), whereas a susceptible culture or isolate would appear as clear or lacking turbidity. Use of a reading device permits this process to be semi-automated.

[14] = tested on: Serratia marcescens in diluted positive blood culture sample; test: Direct-from-positive blood culture AST on the instrument, Serratia marcescens; type: cell-based; details: diluted positive blood culture sample from the clinical lab, FIG. 33, read-out: Our MIC based on the curves
Text: as §6
as §3, with “complete. The test completion is determined either by the prespecified time period for the cassette to be run, or until the software algorithm running the data analysis in real-time determines the necessary change to the call to complete the test.” for “complete.”

[15] = tested on: Serratia marcescens in diluted positive blood culture sample; test: In-house broth microdilution test (expected MIC), Serratia marcescens; type: cell-based; details: clinical positive blood culture sample, FIG. 33, read-out: expected MIC value (based on in-house broth microdilution test)
Experimental: as §7

[16] = tested on: AR Isolate AR 0817; test: Optical scatter phenotypic AST on the instrument, AR Isolate AR 0817; type: cell-based; details: Neisseria gonorrhoeae, FIG. 27, read-out: Our MIC from the instrument
Text: as §1, §2, §3

Structure (SMILES): O=C(O)c1cn(C2CC2)c2cc(N3CCNCC3)c(F)cc2c1=O [Ciprofloxacin]
MIC [1]: 4 µg/mL (≈ 12.1 µM)
MIC ([2]; Neisseria gonorrhoeae, NG 49226 (QC strain), normalized reading, 650 nm, FIG. 24): 0.002 µg/mL (≈ 0.00604 µM)
MIC [3]: 0.008 µg/mL (≈ 0.0241 µM)
expected MIC value (per CDC agar dilution testing) [4]: 8 µg/mL
expected MIC value range (per CDC agar dilution testing) [5]: 0.001 to 0.008 µg/mL
expected MIC value range (BMD method) [6]: 0.004 to 0.016 µg/mL

Structure (SMILES): CN(C)[C@@H]1C(O)=C(C(N)=O)C(=O)[C@@]2(O)C(O)=C3C(=O)c4c(O)cccc4[C@@](C)(O)[C@H]3C[C@@H]12 [Tetracycline]
MIC [7]: 2 µg/mL (≈ 4.5 µM)
MIC [8]: 0.008 µg/mL (≈ 0.018 µM)

Structure (SMILES): C[C@@H](O)[C@H]1C(=O)N2C(C(=O)O)=C(SCCN=CN)C[C@H]12 [Imipenem]
MIC [9]: 0.5 µg/mL (≈ 1.67 µM)

Structure (SMILES): CN[C@H](CC(C)C)C(=O)N[C@H]1C(=O)N[C@@H](CC(N)=O)C(=O)N[C@H]2C(=O)N[C@H]3C(=O)N[C@H](C(=O)N[C@H](C(=O)O)c4cc(O)cc(O)c4-c4cc3ccc4O)[C@H](O)c3ccc(c(Cl)c3)Oc3cc2cc(c3O[C@@H]2O[C@H](CO)[C@@H](O)[C@H](O)[C@H]2O[C@H]2C[C@](C)(N)[C@H](O)[C@H](C)O2)Oc2ccc(cc2Cl)[C@H]1O [Vancomycin]
MIC [10]: 4 µg/mL (≈ 2.76 µM)
expected MIC value [11]: 1 to 4 µg/mL

Structure (SMILES): Cc1onc(-c2ccccc2)c1C(=O)N[C@@H]1C(=O)N2[C@@H]1SC(C)(C)[C@@H]2C(=O)O [Oxacillin]
MIC [12]: > 2 µg/mL
MIC [13]: > 2 µg/mL

MIC [15]: > 16 µg/mL
Structure (SMILES): CC1(C)S[C@@H]2[C@H](NC(=O)[C@H](N)c3ccccc3)C(=O)N2[C@H]1C(=O)O [ampicillin]
MIC [14]: 16 µg/mL (≈ 45.8 µM)

Structure (SMILES): C=CC1=C(C(=O)O)N2C(=O)[C@@H](NC(=O)/C(=N\OCC(=O)O)c3csc(N)n3)[C@H]2SC1 [Cefixime]
MIC ([2]; Neisseria gonorrhoeae 49226 (QC strain), 5-well cassette system, FIG. 26): 0.008 µg/mL (≈ 0.0176 µM)
MIC [16]: 0.125 µg/mL (≈ 0.276 µM)
